Experimental data published in patent US20230043863A1, “HETEROAROMATIC DERIVATIVES FOR USE AS REGULATOR, PREPARATION METHOD THEREFOR AND USE THEREOF” (JIANGSU HANSOH PHARMACEUTICAL GROUP CO., LTD., priority 2018, published 2023).
Where two headings read alike, the source gives them in different places.

Tests used:
[1] = tested on: JAK-STAT signal pathway of U266 cells; assay: Inhibition of cellular JAK-STAT signal pathway (STAT3 phosphorylation) in U266 cells; assay type: cell-based, human; conditions: Homo sapiens, U-266, INF-a 1000 U/mL stimulation
Description: The objective of the test is to test the inhibitory activity of the compound on the cellular JAK-STAT signaling pathway.
U266 cell line was used in this experiment, by activating the JAK-STAT signaling pathway through INF-a stimulation, the inhibitory activity of the compound on its downstream STAT3 phosphorylation was detected, and the half inhibitory concentration IC50 of the compound on the JAK-STAT signaling pathway activity was obtained.
3-12 μL of U266 cell line was spread into the 384-well detection plate, and the number of cells in each well was 100-300 K, followed by addition of 2 μL of the compound solution serially diluted. The plate was incubated for 2 hours with shaking at 350 rpm at room temperature. After 2 hours, 2 μL of INF-a with a final concentration of 1000 U/mL was added. The plate was shaken at room temperature for 15 minutes. 2-5 μL (5×) LANCE Ultra Lysis Buffer 2 solution was added and the plate was shaken at room temperature for 2 hours. After 2 hours, 5 μL of LANCE Ultra Eu-labeled Anti-STAT3 Antibody (PerkinElmer) with a final concentration of 0.5 nM and LANCE Ultra ULight-labeled Anti-STAT3 Antibody (PerkinElmer) with a final concentration of 5 nM were added, and the plate was incubated overnight at room temperature. The fluorescence signal value at 665 nm of each well was measured with the microplate reader, and the inhibition rate was calculated from the fluorescence signal value. According to the inhibition rate of different concentrations, the IC50 of the compound was obtained by curve fitting.
The percentage inhibition data of the wells treated with the compound was calculated with the positive control wells (DMSO control wells) and negative control wells (no kinase added) on the plate {% inhibition rate=100-[(test compound value-negative control value)]/(Positive control value-negative control value)×100}. IC50 value was calculated by using GraphPad prism to fit the data of different concentrations and corresponding percentage inhibition rates to a 4-parameter non-linear logic formula.

[2] = Balb/C mouse pharmacokinetics (plasma, colon, ileum); assay type: in vivo; conditions: male, po, Balb/C mice, p.o. 5 mg/kg; for Cmax: read-out: Blood concentration Cmax; for AUC(0-t): read-out: Curve area AUC0-t; for MRT: read-out: Mean detention time MRT; for Tmax: read-out: Time to peak tmax
From the text: Balb/C mouse was used as the test animal, the pharmacokinetic behavior in mice (plasma and colon, ileum tissue) was studied after oral administering the embodiment 1, embodiment 60, embodiment 169, embodiment 170, embodiment 171, embodiment 179, embodiment 191, embodiment 213, embodiment 214, embodiment 237, embodiment 238, embodiment 244, embodiment 246, embodiment 247, embodiment 257, embodiment 260, embodiment 262, embodiment 263, embodiment 267, embodiment 277, embodiment 278, embodiment 279, embodiment 288, embodiment 295, embodiment 299 and embodiment 301 at a dose of 5 mg/kg. After analyzing the drug concentration in the colon and ileum, the ratio of the drug concentration in the colon to that in ileum, and the ratio of the drug concentration in the colon to that in the plasma, the compounds with excellent PK were selected for further research.
12 Balb/C mice in each group, male, Shanghai Jiesjie Experimental Animal Co., Ltd., animal production license number (SCXK (Shanghai) 2013-0006 N0.311620400001794).
12 Balb/C mice in each group, male; p.o. after one night fast; the dose was 5 mg/kg; the administration volume was 10 mL/kg.
At 0, 0.5, 1, 2, 3, 5 and 7 hours before and after the administration, the mice were executed by CO2 and 0.2 mL of blood was collected from the heart, placed in an EDTA-K2 test tube, and centrifuged at 6000 rpm at 4° C. for 6 minutes to separate the plasma, which was then stored at −80° C. The ileum was taken close to the cecum end with a length of about 4-5 cm, and the colon was also taken close to the cecum end with a length of about 2-3 cm, weighed and placed in a 2 mL centrifuge tube, then stored at −80° C.
1) 40 uL of plasma sample was precipitated by adding 160 uL of acetonitrile, mixed and centrifuged at 3500×g for 5-20 minutes.
2) 30 μL of plasma and intestinal homogenate sample were precipitated by adding 90 of acetonitrile containing internal standard (100 ng/mL), mixed and centrifuged at 13000 rpm for 8 minutes.
3) 70 μL of the supernatant solution after treatment was collected and 70 μL of water was added thereto, vortexed and mixed for 10 minutes, and then 20 μL was collected to analyze the concentration of the test compound by LC/MS/MS. LC/MS/MS analysis instrument: AB Sciex API 4000 Qtrap.
Liquid phase conditions: Shimadzu LC-20AD Pump
Chromatographic column: Agilent ZORBAX XDB-C18 (50×2.1 mm, 3.5 μm) mobile phase: 0.1% formic acid aqueous solution as A solution, acetonitrile as B solution
Elution time: 0-4.0 minutes, the eluent is as follows:
The main pharmacokinetic parameters were calculated with WinNonlin 6.1, and the results of mouse pharmacokinetic experiments are shown in Table 3:
NA refers to none detected or not being tested (the detection limit of blood concentration was 1 ng/mL, when the Cmax in the blood test is NA, then NA in the blood test index refers to none detected; when the Cmax in the blood test is higher than the quantitative limit 1 ng/mL, then NA in the blood test index refers to not being tested; NA in the tissues (colon and ileum) refers to not being tested).

TYK2 = TYK2 (Homo sapiens, UniProt P29597); assay: JAK kinase activity inhibition, TR-FRET (TYK2); assay type: biochemical; conditions: TR-FRET kinase assay
How it was run: (§1)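 TR-FRET read (≈620 and 665 nm) after EDTA quench and 1-24 h antibody detection at RT. Kinase 0.1-20 nM, peptide substrate + ATP, 0.5-5 h RT reaction in HEPES 50-250 mM, MgCl2 5-20 mM. IC50 from 4-parameter fit vs DMSO and no-kinase controls.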

JAK1 = JAK1 (Homo sapiens, UniProt P23458); assay: JAK kinase activity inhibition, TR-FRET (JAK1); assay type: biochemical; conditions: TR-FRET kinase assay
How it was run: as §1

Sequence of TYK2 (P29597 whole entry): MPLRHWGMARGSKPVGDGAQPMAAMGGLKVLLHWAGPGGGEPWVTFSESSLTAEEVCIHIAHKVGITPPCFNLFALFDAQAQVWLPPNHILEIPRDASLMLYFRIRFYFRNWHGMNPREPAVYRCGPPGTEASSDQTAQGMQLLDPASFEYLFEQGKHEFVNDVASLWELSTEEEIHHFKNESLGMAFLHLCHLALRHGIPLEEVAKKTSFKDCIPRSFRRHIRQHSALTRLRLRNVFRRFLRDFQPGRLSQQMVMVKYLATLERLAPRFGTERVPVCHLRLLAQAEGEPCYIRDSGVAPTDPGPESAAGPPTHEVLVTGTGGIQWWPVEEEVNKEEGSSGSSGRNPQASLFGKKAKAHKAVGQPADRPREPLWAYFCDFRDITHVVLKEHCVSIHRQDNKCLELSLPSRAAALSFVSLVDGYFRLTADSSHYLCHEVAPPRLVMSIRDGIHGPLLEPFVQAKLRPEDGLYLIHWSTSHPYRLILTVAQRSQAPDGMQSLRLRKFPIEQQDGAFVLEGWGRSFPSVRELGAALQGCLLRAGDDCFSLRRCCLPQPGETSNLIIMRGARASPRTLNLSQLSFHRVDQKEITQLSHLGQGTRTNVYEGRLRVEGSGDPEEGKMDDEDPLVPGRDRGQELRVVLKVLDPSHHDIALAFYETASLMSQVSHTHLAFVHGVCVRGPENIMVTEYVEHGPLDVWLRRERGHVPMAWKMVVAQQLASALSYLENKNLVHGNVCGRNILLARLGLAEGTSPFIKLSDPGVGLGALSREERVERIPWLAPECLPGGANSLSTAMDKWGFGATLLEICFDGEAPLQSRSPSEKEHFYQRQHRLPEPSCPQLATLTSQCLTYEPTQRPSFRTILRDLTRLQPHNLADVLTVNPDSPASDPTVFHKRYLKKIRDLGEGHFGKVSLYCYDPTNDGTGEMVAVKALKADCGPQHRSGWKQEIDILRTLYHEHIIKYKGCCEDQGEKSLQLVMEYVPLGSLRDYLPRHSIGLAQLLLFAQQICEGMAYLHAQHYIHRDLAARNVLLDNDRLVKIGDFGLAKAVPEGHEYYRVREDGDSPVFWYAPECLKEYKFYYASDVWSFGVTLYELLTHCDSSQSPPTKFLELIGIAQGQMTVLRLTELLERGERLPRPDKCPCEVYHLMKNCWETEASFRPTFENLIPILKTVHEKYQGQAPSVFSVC
Sequence of JAK1 (P23458 whole entry): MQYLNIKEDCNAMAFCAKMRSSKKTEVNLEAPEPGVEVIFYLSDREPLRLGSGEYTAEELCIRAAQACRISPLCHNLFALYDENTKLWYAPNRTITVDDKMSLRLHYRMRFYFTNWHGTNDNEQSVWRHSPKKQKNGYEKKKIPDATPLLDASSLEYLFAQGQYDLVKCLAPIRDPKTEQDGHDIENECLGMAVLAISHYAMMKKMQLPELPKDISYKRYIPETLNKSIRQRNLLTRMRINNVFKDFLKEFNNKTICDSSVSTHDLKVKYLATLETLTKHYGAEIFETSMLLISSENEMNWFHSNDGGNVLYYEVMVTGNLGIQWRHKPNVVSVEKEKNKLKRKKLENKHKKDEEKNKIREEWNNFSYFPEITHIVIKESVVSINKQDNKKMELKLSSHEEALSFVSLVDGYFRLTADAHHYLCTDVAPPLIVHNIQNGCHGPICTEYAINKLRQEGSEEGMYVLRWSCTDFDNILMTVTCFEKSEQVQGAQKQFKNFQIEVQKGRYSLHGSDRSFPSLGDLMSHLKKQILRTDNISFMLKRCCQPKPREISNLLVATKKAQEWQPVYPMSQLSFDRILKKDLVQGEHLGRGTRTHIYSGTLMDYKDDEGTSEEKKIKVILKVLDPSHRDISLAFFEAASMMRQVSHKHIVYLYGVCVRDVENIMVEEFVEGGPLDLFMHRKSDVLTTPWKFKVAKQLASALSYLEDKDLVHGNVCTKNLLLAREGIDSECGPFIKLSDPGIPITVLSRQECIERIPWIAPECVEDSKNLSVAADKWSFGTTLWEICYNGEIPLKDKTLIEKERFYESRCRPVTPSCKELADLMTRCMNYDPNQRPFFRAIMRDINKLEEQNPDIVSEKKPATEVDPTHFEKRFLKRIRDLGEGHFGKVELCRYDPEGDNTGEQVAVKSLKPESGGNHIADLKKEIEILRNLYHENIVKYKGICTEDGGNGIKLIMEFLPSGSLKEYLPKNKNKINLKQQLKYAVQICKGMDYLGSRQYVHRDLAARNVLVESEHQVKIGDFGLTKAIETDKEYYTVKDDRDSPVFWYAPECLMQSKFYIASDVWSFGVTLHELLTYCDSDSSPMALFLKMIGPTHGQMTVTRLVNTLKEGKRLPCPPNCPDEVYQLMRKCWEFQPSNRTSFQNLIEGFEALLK

Row | SMILES | IC50 [1] | IC50 (TYK2) | IC50 (JAK1) | further results
1 | Cc1cc(Nc2nc(N[C@@H]3C[C@H]4CC[C@@H](C3)N4CCC#N)nc3cc(-c4cccnc4)ccc23)n[nH]1 [Embodiment 179, 3-((3-exo)-3-((4-((5-methyl-1H-pyrazol-3-yl)amino)-7-(pyridin-3-yl)quinazolin-2-yl)amino)-8-azabicyclo[3.2.1]oct-8-yl)propionitrile] | 9.84 nM | 0.47 nM | 0.44 nM | Cmax ([2]; plasma, blood): 3.8 ng/mL; AUC(0-t) ([2]; plasma, blood): 6.76 ng·h/mL; MRT ([2]; plasma, blood): 1.66 h; Tmax ([2]; plasma, blood): 0.5 h; Cmax ([2]; colon): 485 ng/mL; AUC(0-t) ([2]; colon): 2040 ng·h/mL; AUC(0-inf) ([2]; colon, read-out: Curve area AUC0-∞): 2180 ng·h/mL; half-life ([2]; colon, read-out: Half life period t1/2 (converted)): 1.49 h; MRT ([2]; colon): 2.83 h; Tmax ([2]; colon): 1 h; Cmax ([2]; ileum): 2330 ng/mL; AUC(0-t) ([2]; ileum): 10300 ng·h/mL; MRT ([2]; ileum): 2.88 h; Tmax ([2]; ileum): 3 h
2 | Cc1cc(Nc2nc(N[C@@H]3C[C@H]4CCC[C@@H](C3)N4C(=O)c3cn(C)cn3)nc3sccc23)n[nH]1 [Embodiment 264, (1-methyl-1H-imidazol-4-yl) ((3-exo)-3-((4-((5-methyl-1H-pyrazol-3-yl)amino)thieno[2,3-d]pyrimidin-2-yl)amino)-9-azabicyclo[3.3.1]non-9-yl)methanone] | 33.5 nM | 0.48 nM | 0.19 nM | –
3 | Cc1cc(Nc2nc(N[C@@H]3C[C@H]4CCC[C@@H](C3)N4S(=O)(=O)c3cccnc3)nc3sccc23)n[nH]1 [Embodiment 268] | 42.9 nM | 0.19 nM | 0.21 nM | –
4 | Cc1cc(Nc2nc(N[C@@H]3C[C@H]4CCC[C@@H](C3)N4CC(=O)N(C)C)nc3sccc23)n[nH]1 [Embodiment 270, N,N-dimethyl-2-((3-exo)-3-((4-((5-methyl-1H-pyrazol-3-yl)amino)thieno[2,3-d]pyrimidin-2-yl)amino)-9-azabicyclo[3.3.1]non-9-yl)acetamide] | 14.3 nM | 5.78 nM | 1.22 nM | –
5 | Cc1cc(Nc2nc(N[C@@H]3C[C@H]4CCC[C@@H](C3)N4Cc3ccccn3)nc3sccc23)n[nH]1 [Embodiment 271] | 1.49 nM | 4.91 nM | 0.05 nM | –
6 | Cc1cc(Nc2nc(N[C@@H]3C[C@H]4CCC[C@@H](C3)N4Cc3nccn3C)nc3sccc23)n[nH]1 [Embodiment 272, N^2-((3-exo)-9-((1-methyl-1H-imidazol-2-yl)methyl)-9-azabicyclo[3.3.1]non-3-yl)-N^4-(5-methyl-1H-pyrazol-3-yl)thieno[2,3-d]pyrimidin-2,4-diamine] | 15.3 nM | 24.7 nM | 0.6 nM | –
7 | Cc1cc(Nc2nc(O[C@@H]3C[C@H]4CC[C@@H](C3)N4CCC#N)nc3sccc23)n[nH]1 [Embodiment 279, 3-((3-exo)-3-((4-((5-methyl-1H-pyrazol-3-yl)amino)thieno[2,3-d]pyrimidin-2-yl)oxo)-8-azabicyclo[3.2.1]oct-8-yl)propionitrile] | 2.2 nM | 0.66 nM | 0.24 nM | –
8 | Cc1cc(Nc2nc(N[C@@H]3C[C@H]4CC[C@@H](C3)N4S(=O)(=O)N3CC(C#N)C3)nc3ccsc23)n[nH]1 [Embodiment 285] | 42 nM | 0.51 nM | 0.17 nM | –
9 | Cc1cc(Nc2nc(N[C@@H]3C[C@H]4CC[C@@H](C3)N4C(=O)CN(C)C)nc3ccsc23)n[nH]1 [Embodiment 287, 2-(dimethylamine)-1-((3-exo)-3-((4-((5-methyl-1H-pyrazol-3-yl)amino)thieno[3,2-d]pyrimidin-2-yl)amino)-8-azabicyclo[3.2.1]oct-8-yl)ethane-1-one] | 10.5 nM | 4.21 nM | 0.58 nM | –
10 | Cc1cc(Nc2nc(N[C@@H]3C[C@H]4CC[C@@H](C3)N4CC(=O)N(C)C)nc3ccsc23)n[nH]1 [Embodiment 293, N,N-dimethyl-2-((3-exo)-3-((4-((5-methyl-1H-pyrazol-3-yl)amino)thieno[3,2-d]pyrimidin-2-yl)amino)-8-azabicyclo[3.2.1]oct-8-yl)acetamide] | 16.5 nM | 10.8 nM | 3.97 nM | –
11 | Cc1cc2nc(N[C@@H]3C[C@H]4CCC[C@@H](C3)N4CCC#N)nc(Nc3cc(CO)[nH]n3)c2s1 [Embodiment 294] | 15.3 nM | 0.23 nM | 0.64 nM | –
12 | Cc1cc(Nc2nc(N[C@@H]3C[C@@H]4CN(CCC#N)C[C@@H]4C3)nc3sccc23)n[nH]1 [Embodiment 298, 3-(cis-5-((4-((5-methyl-1H-pyrazol-3-yl)amino)thieno[2,3-d]pyrimidin-2-yl)amino)hexahydrocyclopentadieno[c]pyrrole-2(1H)-yl)propionitrile] | 1.86 nM | 22.8 nM | 0.67 nM | –
13 | Cc1cc(Nc2nc(NC3CCN(CCC#N)CC3)nc3ccccc23)n[nH]1 [Embodiment 310, 3-(4-((4-((5-methyl-1H-pyrazol-3-yl)amino)quinazolin-2-yl)amino)piperidin-1-yl)propionitrile] | 5.41 nM | 0.26 nM | 8.67 nM | –
